# Literature values, collected in patent US9457044B2, “Methods and compositions for wound healing” (CoDa Therapeutics, Inc., priority 2006, dated 2016).
# B1: KGF: keratinocyte growth factor (protein, UniProt P21781 32-194, looked up)
# Fibroblast growth factor 7: CNDMTPEQMATNVNCSSPERHTRSYDYMEGGDIRVRRLFCRTQWYLRIDKRGKVKGTQEMKNNYNIMEIRTVAVGIVAIKGVESEFYLAMNKEGKLYAKKECNEDCNFKELILENHYNTYASAKWTHNGGEMFVALNQKGIPVRGKKTKKEQKTAHFLPMAIT
# Details: cited from earlier work
Molecule,"effective dose when applied topically (U.S. Pat. No. 4,861,757) [ng/mm^2]","concentration effective for wound healing by topical application to epithelial tissue (about 50 μl, Sotozono et al. 1995)"
PDGF,≥ 5,
B1,,about 5 μg/ml
